Measurements: ChEMBL document CHEMBL3886455, “Aminoindane derivatives, pharmaceutical compositions containing them, and their use in therapy” (2016)

Biological target: T1, Sodium- and chloride-dependent glycine transporter 1 (Homo sapiens, UniProt P48067)
T1 sequence (P48067 whole entry): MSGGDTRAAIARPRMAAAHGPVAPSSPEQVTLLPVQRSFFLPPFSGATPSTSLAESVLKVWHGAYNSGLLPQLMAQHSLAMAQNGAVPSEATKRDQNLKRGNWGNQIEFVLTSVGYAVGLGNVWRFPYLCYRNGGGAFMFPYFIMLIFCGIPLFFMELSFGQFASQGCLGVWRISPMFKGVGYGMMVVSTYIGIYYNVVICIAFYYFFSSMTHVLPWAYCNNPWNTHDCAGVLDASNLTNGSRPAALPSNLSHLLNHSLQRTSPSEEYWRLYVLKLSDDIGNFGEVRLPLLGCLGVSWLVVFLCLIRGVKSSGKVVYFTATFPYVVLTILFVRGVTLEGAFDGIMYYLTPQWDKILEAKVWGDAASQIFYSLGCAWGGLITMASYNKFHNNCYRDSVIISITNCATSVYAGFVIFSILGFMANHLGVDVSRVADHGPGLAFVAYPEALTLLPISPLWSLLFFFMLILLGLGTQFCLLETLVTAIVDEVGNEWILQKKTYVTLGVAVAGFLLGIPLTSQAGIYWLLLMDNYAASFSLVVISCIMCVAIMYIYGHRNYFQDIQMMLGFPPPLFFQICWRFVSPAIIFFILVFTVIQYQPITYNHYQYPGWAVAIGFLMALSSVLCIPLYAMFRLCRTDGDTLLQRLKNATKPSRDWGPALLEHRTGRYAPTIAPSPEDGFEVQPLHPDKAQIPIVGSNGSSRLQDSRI
Assay: Radioligand Binding Assay: Radioligand binding to human GlyT1c transporter-expressing membranes was determined as described in Mezler et al., Molecular Pharmacology 74:1705-1715, 2008.

Ki: < 10 nM
SMILES: Cn1cnc(S(=O)(=O)NCc2cc3c(cc2F)C[C@@H](N)[C@H]3Cc2ccccc2)c1 (relative stereo)
